Assay results published in EPA's ToxValDB 9.5.
Several values for one entry are separate records, joined by “and”; a condition that tells them apart may be missing. Identical values can stand only once.

Tests used:
[1] = tested on: Rattus norvegicus; conditions: M/F; for LEL / NOEL: oral
[2] = tested on: Rattus norvegicus; conditions: for LEL: uterotrophic, duration: 3 days, Active
[3] = tested on: Canidae; conditions: chronic, oral, diet, M/F, Dog Other
[4] = tested on: Rattus norvegicus
[5] = tested on: Mus musculus; conditions: for LD50: gavage
[6] = tested on: Rattus norvegicus; conditions: for LC50 / LD50: acute
[7] = tested on: Rattus norvegicus; conditions: oral, M/F; for NOEL: gavage
[8] = tested on: Oryctolagus sp.; conditions: dermal, New Zealand; for LD50: acute
[9] = duration: 2 years, cholinesterase inhibition
[10] = duration: 1 years, liver cell enlargement
[11] = duration: 2 years, liver toxicity
[12] = reproduction developmental, duration: 4 weeks, Inhalation, F, CD
[13] = reproduction developmental, duration: 4 weeks, Inhalation, M, CD
[14] = reproduction developmental, duration: 10 days, oral, gavage, Crl:CD(SD)
[15] = chronic, duration: 2 years, diet, increased liver weight
[16] = reproduction developmental, kidney, spleen, liver, and bone marrow toxicity
[17] = duration: 1 years, Liver effects + organ weight changes
[18] = duration: 1 years, thyroid toxicity
[19] = Hershberger, duration: 7 days, oral, gavage, Sprague-Dawley, active + Antiandrogenic + anti-androgenic + no AST effects in pairwise comparison but increasing trend for LABC and DL prostate / …
[20] = reduced body weight gain, skeletal myopathy, slight anemia, bone marrow hyperplasia, increased serum sgot, sgpt, cpk

Work on `CC(C)Oc1cccc(NC(=O)c2ccccc2C(F)(F)F)c1` [Flutolanil] yielded an LEL ([1]; reproduction developmental, Decreased body weight and body weight gains in both doses increased liver weights at high dose) of 63.7 mg/kg-day and an NOEL ([2]; Hershberger, duration: 10 days, oral, gavage, Sprague-Dawley, inactive + Negative + neither + negative) of 1000 mg/kg-day.

`CCOP(=O)(NC(C)C)Oc1ccc(SC)c(C)c1` (centres undefined) [Fenamiphos] gave an LEL [3, 9] of 0.05 mg/kg-day and an NOEL [3, 9] of 0.025 mg/kg-day.

Work on `[Mo]` [Molybdenum] yielded an NOAEL ([4]; subchronic, duration: 90 days, oral, diet, M/F, Sprague-Dawley, renal) of 17 mg/kg-day.

In the case of `Clc1ccc(C(Cl)(Cl)Cl)cn1` [2-Chloro-5-trichloromethylpyridine], the NOAEL ([5]; short-term, duration: 2 weeks, inhalation, B6C3F1) was 9.44 mg/m3, the LC50 ([6]; Inhalation, Fischer 344) was greater than 108 mg/m3 and the LD50 ([6]; oral, gavage, Sprague-Dawley) was ≥ 500 mg/kg and ≤ 1000 mg/kg. For the same compound, the NOAEL ([6]; short-term, duration: 2 weeks, Inhalation, Fischer 344) was 9.44 mg/m3.

With `C[Si](Cn1cncn1)(c1ccc(F)cc1)c1ccc(F)cc1` [Flusilazole] the LEL [3, 10] was 0.7 mg/kg-day and the NOEL [3, 10] was 0.2 mg/kg-day.

`CC(Cl)CCl` (centres undefined) [1,2-Dichloropropane] showed an LOAEL ([4]; short-term, duration: 2 weeks, inhalation, M/F, Fischer 344, respiratory) of 462 mg/m3, an LOAEL ([4]; subchronic, duration: 13 weeks, oral, gavage, M, Sprague-Dawley, hematological) of 100 mg/kg-day and an LOAEL ([1]; subchronic, duration: 13 weeks, inhalation, hyperplasia of the nasal mucosa) of 69.3 mg/m3. The NOEL ([7]; subchronic, duration: 13 weeks, Fischer 344, Deaths + Body Weight Changes: decrease + Histopathology: Liver/centrilobular-Congestion Liver-Hepatic fatty change Liver/centrilobular -…) was 250 mg/kg-day.

Work on `COc1nn(CSP(=S)(OC)OC)c(=O)s1` [Methidathion] yielded an LEL [3, 11] of 0.4 mg/kg-day and an NOEL [3, 11] of 0.1 mg/kg-day.

For `c1ccc(NNc2ccccc2)cc1` [1,2-Diphenylhydrazine], the NOAEL ([4]; subchronic, duration: 13 weeks, oral, diet, M, Fischer 344, hepatic) was 4.8 mg/kg-day.

For `C1CN(SSN2CCOCC2)CCO1` [4,4'-Dithiodimorpholine], the LD50 ([8]; occlusive) was greater than 5010 mg/kg, the LC50 ([5]; acute, inhalation) was 1620 mg/m3 and the LD50 ([6]; oral, gavage, Sprague-Dawley) was 5600 mg/kg. The LOAEL [6, 12] was 29 mg/m3, the NOAEL [6, 12] was 9.9 mg/m3 and the LOAEL [6, 13] was 9.9 mg/m3. The NOAEL [6, 13] was 1.1 mg/m3, the LOAEL [6, 14] was 500 mg/kg-day and the NOAEL [6, 14] was 100 mg/kg-day.

In the case of `CC1(C)C(C=C(Cl)Cl)C1C(=O)OCc1cccc(Oc2ccccc2)c1` (centres undefined) [Permethrin], the NOAEL ([4]; acute, duration: 1 days, oral, gavage, M/F, Long-Evans, neurological) was 25 mg/kg-day, the NOAEL ([4]; subchronic, duration: 13 weeks, oral, diet, M/F, Sprague-Dawley, neurological) was 15.5 mg/kg-day and the LEL [1, 15] was 25 mg/kg-day. For the same compound, the NOEL [1, 15] was 5 mg/kg-day, the NOEL ([2]; Hershberger, duration: 10 days, oral, gavage, Sprague-Dawley, inactive + Negative + Negative + neither + no effects on PPS, AST, testis/epididymal wt, serum testosterone, and liver wt increased 11% at …) was 120 mg/kg-day and the LEL ([2]; injection, subcutaneous) was 800 mg/kg-day.

`CCCCC(C)=O` [2-Hexanone] gave an LOAEL ([4]; chronic, duration: 13 months, oral, drinking water, M, Sprague-Dawley, neurological) of 143 mg/kg-day.

Work on `CC(C)OC(=O)Nc1cccc(Cl)c1` [Chlorpropham] yielded an LEL [1, 16] of 150 mg/kg-day, an NOEL [1, 16] of 50 mg/kg-day and an NOAEL ([7]; subchronic, duration: 90 days, diet, Fischer 344, Clinical Observation: Pale + Body Weight Changes: decrease + Hematology: RBC decrease, HGB decrease, HCT decrease, MCV increase, MCH …) of less than 720 mg/kg-day.

`[S-]c1nc2ccccc2s1.[S-]c1nc2ccccc2s1.[Zn+2]` [Zinc 2-mercaptobenzothiazolate] was tested, and the LD50 [8] was greater than 2000 mg/kg, the LD50 ([8]; occlusive) was greater than 7940 mg/kg and the NOAEL ([5]; reproduction developmental, duration: 18 months, oral) was 1000 mg/kg-day. The LD50 ([6]; oral, Sprague-Dawley) was 5500 mg/kg and the LD50 ([6]; oral, gavage, Sprague-Dawley) was 7500 mg/kg.

`Clc1ccccc1-c1nnc(-c2ccccc2Cl)nn1` [Clofentezine] was tested, and the LEL [3, 17] was 25 mg/kg-day and the NOEL [3, 17] was 1.25 mg/kg-day.

`CC(=O)O.CCCCCCCCCCCCN=C(N)N` [Dodecylguanidine acetate] was tested, and the LEL [3, 18] was 5 mg/kg-day and the NOEL [3, 18] was 1.25 mg/kg-day.

In the case of `Oc1cc(Cl)ccc1Cl` [2,5-Dichlorophenol], the LD50 ([8]; occlusive) was greater than 8000 mg/kg, the LOAEL ([8]; reproduction developmental, duration: 21 days, non-occlusive) was 1 mg/kg-day and the LD50 ([5]; acute, oral, CD1) was ≥ 946 mg/kg and ≤ 1600 mg/kg. The LC50 ([6]; inhalation, Spartan) was greater than 185000 mg/m3, the LD50 ([6]; oral, gavage, Wistar) was 2480 mg/kg and the LOAEL ([6]; reproduction developmental, duration: 4 weeks, inhalation, Sprague-Dawley) was 0.1 mg/L.

`CCCCCCCCCCCCN` [1-Dodecanamine] was tested, and the LD50 ([5]; acute, oral) was 1160 mg/kg, the LD50 ([6]; oral, gavage) was 1020 mg/kg and the LD50 ([6]; oral, gavage, Wistar) was greater than 2000 mg/kg.

Compound `Cc1c(COC(=O)[C@@H]2[C@H](/C=C(\Cl)C(F)(F)F)C2(C)C)cccc1-c1ccccc1` [Bifenthrin] has an LEL ([3]; duration: 1 years, tremors) of 3 mg/kg-day, an NOEL ([3]; duration: 1 years, tremors) of 1.5 mg/kg-day and an NOEL ([7]; short-term, duration: 28 days, Clinical Observation: Tremor) of 50 ppm. For the same compound, the LOEL [2, 19] was 13.5 mg/kg-day, the NOEL [2, 19] was 10 mg/kg-day and the NOEL ([2]; Hershberger, duration: 10 days, oral, gavage, Sprague-Dawley, inactive + Negative + Negative + neither + negative) was 10 mg/kg-day. The LEL ([2]; oral) was 13.2 mg/kg-day.

Compound `CC(C)C1(C)N=C(c2nc3ccccc3cc2C(=O)O)NC1=O` (centres undefined) [Imazaquin] has an LEL [3, 20] of 125 mg/kg-day and an NOEL [3, 20] of 25 mg/kg-day.
